Reference: the supplement of paper PMC10307832

Tests used:
Experiment in all cases: relative viability (nuclei count vs DMSO), 5 days (fraction); higher = more cells survive
BEN = test system: BEN
Summary of the method: (§1)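 Lung cancer cell lines in 1536-well plates were dosed by pin tool the day after seeding, either with one drug alone or with a fixed anchor-drug dose plus five library-drug doses (not always all listed) in √10 steps. After 5 days, cells were fixed and their nuclei stained in one step (final 0.05% Triton X-100, 1% formaldehyde, 1 ug/ml Hoechst), then counted on 4× images. Relative viability is the nuclei count in treated wells divided by that in vehicle wells. Values are medians of duplicate plates.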

EKVX = test system: EKVX
Summary of the method: as §1

SW 900 = test system: SW 900
Summary of the method: as §1

HCC-366 = test system: HCC-366
Summary of the method: as §1

NCI-H1650 = test system: NCI-H1650
Summary of the method: as §1

PC-14 = test system: PC-14
Summary of the method: as §1

LOU-NH91 = test system: LOU-NH91
Summary of the method: as §1

NCI-H3122 = test system: NCI-H3122
Summary of the method: as §1

NCI-H661 = test system: NCI-H661
Summary of the method: as §1

NCI-H441 = test system: NCI-H441
Summary of the method: as §1

NCI-H2009 = test system: NCI-H2009
Summary of the method: as §1

NCI-H460 = test system: NCI-H460
Summary of the method: as §1

201T = test system: 201T
Summary of the method: as §1

NCI-H1666 = test system: NCI-H1666
Summary of the method: as §1

CAL-12T = test system: CAL-12T
Summary of the method: as §1

COR-L 105 = test system: COR-L 105
Summary of the method: as §1

LK-2 = test system: LK-2
Summary of the method: as §1

HARA = test system: HARA
Summary of the method: as §1

NCI-H1437 = test system: NCI-H1437
Summary of the method: as §1

NCI-H2170 = test system: NCI-H2170
Summary of the method: as §1

Cc1sc2c(c1C)C(c1ccc(Cl)cc1)=N[C@@H](CC(=O)OC(C)(C)C)c1nnc(C)n1-2 [JQ1] + Nc1nc2[nH]cc(CCc3ccc(C(=O)N[C@@H](CCC(=O)O)C(=O)O)cc3)c2c(=O)[nH]1 [Pemetrexed] (partner 0.2 µM)
relative viability (BEN; first compound 0.04 µM): 0.7 | relative viability (BEN; first compound 0.1265 µM): 0.523 | relative viability (BEN; first compound 0.4 µM): 0.67 | relative viability (BEN; first compound 1.265 µM): 0.518 | relative viability (BEN; first compound 4 µM): 0.384 | relative viability (EKVX; first compound 0.04 µM): 0.351 | relative viability (EKVX; first compound 0.1265 µM): 0.396 | relative viability (EKVX; first compound 0.4 µM): 0.304 | relative viability (EKVX; first compound 1.265 µM): 0.362 | relative viability (EKVX; first compound 4 µM): 0.264 | relative viability (SW 900; first compound 0.04 µM): 0.472 | relative viability (SW 900; first compound 0.1265 µM): 0.477 | relative viability (SW 900; first compound 0.4 µM): 0.349 | relative viability (SW 900; first compound 1.265 µM): 0.19 | relative viability (SW 900; first compound 4 µM): 0.195 | relative viability (HCC-366; first compound 0.04 µM): 0.16 | relative viability (HCC-366; first compound 0.4 µM): 0.136 | relative viability (HCC-366; first compound 1.265 µM): 0.13 | relative viability (HCC-366; first compound 4 µM): 0.104 | relative viability (NCI-H1650; first compound 0.04 µM): 0.365 | relative viability (NCI-H1650; first compound 0.1265 µM): 0.293 | relative viability (NCI-H1650; first compound 0.4 µM): 0.335 | relative viability (NCI-H1650; first compound 1.265 µM): 0.202 | relative viability (NCI-H1650; first compound 4 µM): 0.183 | relative viability (PC-14; first compound 0.04 µM): 0.12 | relative viability (PC-14; first compound 0.1265 µM): 0.148 | relative viability (PC-14; first compound 0.4 µM): 0.105 | relative viability (PC-14; first compound 1.265 µM): 0.136 | relative viability (PC-14; first compound 4 µM): 0.133 | relative viability (LOU-NH91; first compound 0.04 µM): 0.365 | relative viability (LOU-NH91; first compound 0.1265 µM): 0.387 | relative viability (LOU-NH91; first compound 0.4 µM): 0.354 | relative viability (LOU-NH91; first compound 1.265 µM): 0.334 | relative viability (LOU-NH91; first compound 4 µM): 0.362 | relative viability (NCI-H3122; first compound 0.04 µM): 0.193 | relative viability (NCI-H3122; first compound 0.1265 µM): 0.16 | relative viability (NCI-H3122; first compound 0.4 µM): 0.186 | relative viability (NCI-H3122; first compound 1.265 µM): 0.118 | relative viability (NCI-H3122; first compound 4 µM): 0.12 | relative viability (NCI-H661; first compound 0.04 µM): 0.914 | relative viability (NCI-H661; first compound 0.1265 µM): 0.876 | relative viability (NCI-H661; first compound 0.4 µM): 0.916 | relative viability (NCI-H661; first compound 1.265 µM): 0.482 | relative viability (NCI-H661; first compound 4 µM): 0.423 | relative viability (NCI-H441; first compound 0.04 µM): 0.271 | relative viability (NCI-H441; first compound 0.1265 µM): 0.263 | relative viability (NCI-H441; first compound 0.4 µM): 0.273 | relative viability (NCI-H441; first compound 1.265 µM): 0.213 | relative viability (NCI-H441; first compound 4 µM): 0.186 | relative viability (NCI-H2009; first compound 0.04 µM): 0.958 | relative viability (NCI-H2009; first compound 0.1265 µM): 0.795 | relative viability (NCI-H2009; first compound 0.4 µM): 0.954 | relative viability (NCI-H2009; first compound 1.265 µM): 0.459 | relative viability (NCI-H2009; first compound 4 µM): 0.234 | relative viability (NCI-H460; first compound 0.04 µM): 0.0603 | relative viability (NCI-H460; first compound 0.1265 µM): 0.0567 | relative viability (NCI-H460; first compound 0.4 µM): 0.0624 | relative viability (NCI-H460; first compound 1.265 µM): 0.0611 | relative viability (NCI-H460; first compound 4 µM): 0.07 | relative viability (201T; first compound 0.04 µM): 0.325 | relative viability (201T; first compound 0.4 µM): 0.293 | relative viability (201T; first compound 1.265 µM): 0.274 | relative viability (201T; first compound 4 µM): 0.23 | relative viability (NCI-H1666; first compound 0.04 µM): 0.801 | relative viability (NCI-H1666; first compound 0.1265 µM): 0.786 | relative viability (NCI-H1666; first compound 0.4 µM): 0.697 | relative viability (NCI-H1666; first compound 1.265 µM): 0.659 | relative viability (NCI-H1666; first compound 4 µM): 0.602 | relative viability (CAL-12T; first compound 0.04 µM): 1.22 | relative viability (CAL-12T; first compound 0.1265 µM): 1.18 | relative viability (CAL-12T; first compound 0.4 µM): 1.08 | relative viability (CAL-12T; first compound 1.265 µM): 0.465 | relative viability (CAL-12T; first compound 4 µM): 0.249 | relative viability (COR-L 105; first compound 0.04 µM): 0.818 | relative viability (COR-L 105; first compound 0.1265 µM): 0.566 | relative viability (COR-L 105; first compound 0.4 µM): 0.742 | relative viability (COR-L 105; first compound 1.265 µM): 0.385 | relative viability (COR-L 105; first compound 4 µM): 0.413 | relative viability (LK-2; first compound 0.04 µM): 0.282 | relative viability (LK-2; first compound 0.1265 µM): 0.29 | relative viability (LK-2; first compound 0.4 µM): 0.234 | relative viability (LK-2; first compound 1.265 µM): 0.16 | relative viability (LK-2; first compound 4 µM): 0.158 | relative viability (HARA; first compound 0.04 µM): 0.249 | relative viability (HARA; first compound 0.1265 µM): 0.271 | relative viability (HARA; first compound 0.4 µM): 0.235 | relative viability (HARA; first compound 1.265 µM): 0.217 | relative viability (HARA; first compound 4 µM): 0.185 | relative viability (NCI-H1437; first compound 0.04 µM): 0.303 | relative viability (NCI-H1437; first compound 0.1265 µM): 0.309 | relative viability (NCI-H1437; first compound 0.4 µM): 0.244 | relative viability (NCI-H1437; first compound 1.265 µM): 0.201 | relative viability (NCI-H1437; first compound 4 µM): 0.208 | relative viability (NCI-H2170; first compound 0.04 µM): 0.257 | relative viability (NCI-H2170; first compound 0.1265 µM): 0.263 | relative viability (NCI-H2170; first compound 0.4 µM): 0.248 | relative viability (NCI-H2170; first compound 1.265 µM): 0.238 | relative viability (NCI-H2170; first compound 4 µM): 0.194
